Structures can show the parent of a compound that is named as a salt.
How the values were obtained:
Candida albicans = assay: protective effect against experimental infection in mice; settings: in Mus musculus, 168 h
Description: 5-Week old Crj:CDF1 mice were inoculated with the minimum lethal dose of Candida albicans in its vein or abdominal cavity. A drug was administered once immediately after the infection or twice, i.e., immediately after and two hours after the infection. The drug effect was shown with ED50 value calculated by Reed and Muench method from the survival ratio on day 7 after infection. The ED50 value was calculated from the total dose.

[1] = tested on: Cryptococcus neoformans IFO 0410; assay: paper disk growth inhibition on agar (antifungal spectrum); format: cell-based; settings: IFO0410, 48 h, medium A (yeast nitrogen base agar, pH 7.0), 1000 μg/ml, 8 mm disk, 2 days, 28° C., read-out: Diameter of growth inhibition zone
Description: (§1) Evaluation for fungicidal acitivity of the compound (I) was carried out by the following method.
(§2) A paper disk (manufactured by TOYO SEISAKUSHO, 8mm in diameter) dipped into a methanol solution containing the compound (I) in an amount of 1000 μg/ml was placed on an agar plate containing various fungi. After the cultivation of said fungi for two days at 28° C., mesurement was made to the diameter of a growth inhibiton zone produced around the paper disk. The media used for the evaluation are as follows:
(§3) A: Yeast nitrogen base agar (pH 7.0)

Candida utilis IFO 0619 = assay: as above; format: cell-based; settings: Williopsis jadinii, IFO0619, 48 h, medium A (yeast nitrogen base agar, pH 7.0), 1000 μg/ml, 8 mm disk, 2 days, 28° C., read-out: Diameter of growth inhibition zone
Description: as §1, §2, §3

[2] = tested on: Aspergillus fumigatus IFO 6344; assay: as above; format: cell-based; settings: IFO6344, 48 h, medium A (yeast nitrogen base agar, pH 7.0), 1000 μg/ml, 8 mm disk, 2 days, 28° C., read-out: Diameter of growth inhibition zone
Description: as §1, §2, §3

[3] = tested on: Aspergillus niger IFO 4066; assay: as above; format: cell-based; settings: IFO4066, 48 h, medium A (yeast nitrogen base agar, pH 7.0), 1000 μg/ml, 8 mm disk, 2 days, 28° C., read-out: Diameter of growth inhibition zone
Description: as §1, §2, §3

[4] = tested on: Candida albicans IFO 0583; assay: as above; format: cell-based; settings: IFO0583, 48 h, medium A (yeast nitrogen base agar, pH 7.0), 1000 μg/ml, 8 mm disk, 2 days, 28° C., read-out: Diameter of growth inhibition zone
Description: as §1, §2, §3

[5] = tested on: Microsporum gypseum IFO 6075; assay: as above; format: cell-based; settings: Nannizzia gypsea, IFO6075, 48 h, medium B (Sabouraud's agar), 1000 μg/ml, 8 mm disk, 2 days, 28° C., read-out: Diameter of growth inhibition zone
Description: as §1
as §2, with “disk.” for “disk. The media used for the evaluation are as follows:”

[6] = tested on: Trichophyton rubrum IFO 6467; assay: as above; format: cell-based; settings: IFO6467, 48 h, medium B (Sabouraud's agar), 1000 μg/ml, 8 mm disk, 2 days, 28° C., read-out: Diameter of growth inhibition zone
Description: as §1
as §2, with “disk.” for “disk. The media used for the evaluation are as follows:”

[7] = tested on: Trichophyton methagrophytes IFO 7522; assay: as above; format: cell-based; settings: IFO7522, 48 h, medium B (Sabouraud's agar), 1000 μg/ml, 8 mm disk, 2 days, 28° C., read-out: Diameter of growth inhibition zone
Description: as §1
as §2, with “disk.” for “disk. The media used for the evaluation are as follows:”

Pyricularia oryzae = format: in vivo, Pyricularia oryzae (on rice); settings: 200 ppm; rice seedling, 6 days after inoculation
Erysiphe graminis = assay: preventive effect against powdery mildew of barley (Experimental Method 1); format: in vivo, Erysiphe graminis (on barley); settings: 200 ppm; barley seedling, 8 days after inoculation
Description: Experimental Method 1 Experiment for preventive effect against powdery mildew of barley (Erysiphe graminis) […] The resultant solution was diluted with water to obtain a predetermined concentration of the active ingredient. To this diluted solution was added a sticker Dyne®[manufactured by Takeda Chemical Industries, Ltd., and including polyoxyethylenenonylphenylether (10 wt. %) and potassium ligninsulfonate (10 wt. %)] in a ratio of 0.03 wt. % (end concentration) to prepare a spray. Thus obtained spray was sprayed to a barley seedling (about one week seeding) such that the spray was dripped from the seedling. After air-drying, the spore of susceptible leaf with Erysiphe graminis was forcibly deposited for inoculation. The spore was maintained at an artificial inoculation chamber at a temperature of 20° C. for 8 days after the inoculation. Thereafter, the area rate of lesion was examined to represent the preventive value by the following coefficient. […] Preventive value 2: area rate of lesion 11-20% Preventive value 1: area rate of lesion 21-50% Preventive value 0: area rate of lesion 51% or more

Row | SMILES | ED50 (Candida albicans; po) [mg/kg] | zone of inhibition at 1000 µg/mL [1] [mm] | zone of inhibition at 1000 µg/mL (Candida utilis IFO 0619) [mm] | zone of inhibition at 1000 µg/mL [2] [mm] | zone of inhibition at 1000 µg/mL [3] [mm] | zone of inhibition at 1000 µg/mL [4] [mm] | zone of inhibition at 1000 µg/mL [5] [mm] | zone of inhibition at 1000 µg/mL [6] [mm] | zone of inhibition at 1000 µg/mL [7] [mm] | Preventive Value for Pyricularia oryzae (Pyricularia oryzae) | Preventive Value for Erysiphe graminis (Erysiphe graminis) | ED50 (Candida albicans; sc) [mg/kg]
1 | Cc1cccc(N(C)C(=S)S[C@H](C)[C@](O)(Cn2cncn2)c2ccc(F)cc2F)c1 [Compound 9, [(2R,3R)-3-(2,4-difluorophenyl)-3-hydroxy-4-(1H,1,2,4-triazol-1-yl)-2-butyl] N-methyl-N-(3-methylphenyl) dithiocarbamate hydrochloride] | 2 | 20 | 20 | 15 | 13 | 25 | 20 | 30 | 15 | – | – | –
2 | CCN(CC)C(=S)S[C@H](C)[C@](O)(Cn1cncn1)c1ccc(F)cc1F.Cl [Compound 2, [(2R,3R)-3-(2,4-difluorophenyl)-3-hydroxy-4-(1H-1,2,4-triazol-1-yl)-2-butyl] N,N-diethyldithiocarbamate hydrochloride] | 0.5 | 30 | 40 | 50 | 35 | 30 | 48 | 40 | 48 | 3 (area rate of lesion 0-14%) | 3 (area rate of lesion 0-10%) | –
3 | CCN(CC)C(=S)S[C@H](C)[C@](O)(Cn1cncn1)c1ccc(F)cc1F (racemic) [Compound 1, [(2RS,3RS)-3-(2,4-difluorophenyl)-3-hydroxy-4-(1H-1,2,4-triazol-1-yl)-2butyl] N,N-diethyldithiocarbamate] | – | 35 | 32 | 45 | 28 | 40 | 40 | 35 | 40 | 3 (area rate of lesion 0-14%) | 3 (area rate of lesion 0-10%) | 2

Reference: patent US5387599A, “Triazoles, their production and use” (Takeda Chemical Industries, Ltd., priority 1990, dated 1995)
